{"source": "ChEMBL document CHEMBL3885881", "about": "“DrugMatrix”", "organism": "Rattus norvegicus", "test": "DrugMatrix - Regimen: Daily Repeat", "format": "toxicity, organism-based, Sprague-Dawley", "parameters": "regimen Daily Repeat, gender Male, age 6-8 weeks", "details": "in vivo, po, 12 mg/kg, route oral GAVAGE, dose level Low, vehicle .5 % CMC; for ABSOLUTE BASOPHIL / ABSOLUTE EOSINOPHIL / ABSOLUTE LYMPHOCYTE / ABSOLUTE MONOCYTE / ABSOLUTE SEGMENTED NEUTROPHIL / BASOPHIL / EOSINOPHIL / ERYTHROCYTE COUNT / HEMATOCRIT / HEMOGLOBIN / LEUKOCYTE COUNT / LYMPHOCYTE / MEAN CORPUSCULAR HEMOGLOBIN / MEAN CORPUSCULAR HEMOGLOBIN CONCENTRATION / MEAN CORPUSCULAR VOLUME / MONOCYTE / NEUTROPHIL / NUCLEATED RED BLOOD CELLS / PLATELET COUNT: tissue Blood; for ALANINE AMINOTRANSFERASE / ALBUMIN / ALKALINE PHOSPHATASE / ASPARTATE AMINOTRANSFERASE / BLOOD UREA NITROGEN / CARBON DIOXIDE / CHLORIDE / CHOLESTEROL / CREATINE PHOSPHOKINASE / CREATININE / GLUCOSE / LACTATE DEHYDROGENASE / LIPASE / PHOSPHORUS / POTASSIUM / SODIUM / TOTAL BILIRUBIN / TOTAL PROTEIN / URIC ACID: tissue Plasma"}
{"smiles": "CC(=O)O[C@]1(C(C)=O)CC[C@H]2[C@@H]3C=C(C)C4=CC(=O)CC[C@]4(C)[C@H]3CC[C@@]21C", "note": "[MEGESTROL ACETATE]", "values": [{"measurement": "ABSOLUTE BASOPHIL", "setting": "72 h, time 3 day", "result": 0, "unit": "CELLS/uL"}, {"measurement": "ABSOLUTE EOSINOPHIL", "setting": "72 h, time 3 day", "result": 84.67, "unit": "CELLS/uL"}, {"measurement": "ABSOLUTE LYMPHOCYTE", "setting": "72 h, time 3 day", "result": 11039.33, "unit": "CELLS/uL"}, {"measurement": "ABSOLUTE MONOCYTE", "setting": "72 h, time 3 day", "result": 40, "unit": "CELLS/uL"}, {"measurement": "ABSOLUTE SEGMENTED NEUTROPHIL", "setting": "72 h, time 3 day", "result": 1136, "unit": "CELLS/uL"}, {"measurement": "BASOPHIL", "setting": "72 h, time 3 day", "result": 0, "unit": "%"}, {"measurement": "EOSINOPHIL", "setting": "72 h, time 3 day", "result": 0.67, "unit": "%"}, {"measurement": "ERYTHROCYTE COUNT", "setting": "72 h, time 3 day", "result": 5.83, "unit": "x10E6/uL"}, {"measurement": "HEMATOCRIT", "setting": "72 h, time 3 day", "result": 37.03, "unit": "%"}, {"measurement": "HEMOGLOBIN", "setting": "72 h, time 3 day", "result": 13.83, "unit": "G/DL"}, {"measurement": "LEUKOCYTE COUNT", "setting": "72 h, time 3 day", "result": 12.3, "unit": "x10E3/uL"}, {"measurement": "LYMPHOCYTE", "setting": "72 h, time 3 day", "result": 89.67, "unit": "%"}, {"measurement": "MEAN CORPUSCULAR HEMOGLOBIN", "setting": "72 h, time 3 day", "result": 23.77, "unit": "pg"}, {"measurement": "MEAN CORPUSCULAR HEMOGLOBIN CONCENTRATION", "setting": "72 h, time 3 day", "result": 37.37, "unit": "G/DL"}, {"measurement": "MEAN CORPUSCULAR VOLUME", "setting": "72 h, time 3 day", "result": 63.5, "unit": "fL"}, {"measurement": "MONOCYTE", "setting": "72 h, time 3 day", "result": 0.33, "unit": "%"}, {"measurement": "NEUTROPHIL", "setting": "72 h, time 3 day", "result": 9.33, "unit": "%"}, {"measurement": "NUCLEATED RED BLOOD CELLS", "setting": "72 h, time 3 day", "result": "0 /100WBC"}, {"measurement": "PLATELET COUNT", "setting": "72 h, time 3 day", "result": 1299.33, "unit": "x10E3/uL"}, {"measurement": "ALANINE AMINOTRANSFERASE", "setting": "72 h, time 3 day", "result": 52, "unit": "u/L"}, {"measurement": "ALBUMIN", "setting": "72 h, time 3 day", "result": 4.43, "unit": "G/DL"}, {"measurement": "ALKALINE PHOSPHATASE", "setting": "72 h, time 3 day", "result": 394.33, "unit": "u/L"}, {"measurement": "ASPARTATE AMINOTRANSFERASE", "setting": "72 h, time 3 day", "result": 80.67, "unit": "u/L"}, {"measurement": "BLOOD UREA NITROGEN", "setting": "72 h, time 3 day", "result": 16.33, "unit": "mg/dL"}, {"measurement": "CARBON DIOXIDE", "setting": "72 h, time 3 day", "result": 25.33, "unit": "mmol/L"}, {"measurement": "CHLORIDE", "setting": "72 h, time 3 day", "result": 103.67, "unit": "MEQ/L"}, {"measurement": "CHOLESTEROL", "setting": "72 h, time 3 day", "result": 66.33, "unit": "mg/dL"}, {"measurement": "CREATINE PHOSPHOKINASE", "setting": "72 h, time 3 day", "result": 195, "unit": "u/L"}, {"measurement": "CREATININE", "setting": "72 h, time 3 day", "result": 0.25, "unit": "mg/dL"}, {"measurement": "GLUCOSE", "setting": "72 h, time 3 day", "result": 179.67, "unit": "mg/dL"}, {"measurement": "LACTATE DEHYDROGENASE", "setting": "72 h, time 3 day", "result": 177.33, "unit": "u/L"}, {"measurement": "LIPASE", "setting": "72 h, time 3 day", "result": 8, "unit": "u/L"}, {"measurement": "PHOSPHORUS", "setting": "72 h, time 3 day", "result": 13.6, "unit": "mg/dL"}, {"measurement": "POTASSIUM", "setting": "72 h, time 3 day", "result": 6.09, "unit": "MEQ/L"}, {"measurement": "SODIUM", "setting": "72 h, time 3 day", "result": 146.33, "unit": "MEQ/L"}, {"measurement": "TOTAL BILIRUBIN", "setting": "72 h, time 3 day", "result": 0.27, "unit": "mg/dL"}, {"measurement": "TOTAL PROTEIN", "setting": "72 h, time 3 day", "result": 6.43, "unit": "G/DL"}, {"measurement": "URIC ACID", "setting": "72 h, time 3 day", "result": 1.73, "unit": "mg/dL"}, {"measurement": "ABSOLUTE BASOPHIL", "setting": "120 h, time 5 day", "result": 0, "unit": "CELLS/uL"}, {"measurement": "ABSOLUTE EOSINOPHIL", "setting": "120 h, time 5 day", "result": 115.33, "unit": "CELLS/uL"}, {"measurement": "ABSOLUTE LYMPHOCYTE", "setting": "120 h, time 5 day", "result": 7823.33, "unit": "CELLS/uL"}, {"measurement": "ABSOLUTE MONOCYTE", "setting": "120 h, time 5 day", "result": 0, "unit": "CELLS/uL"}, {"measurement": "ABSOLUTE SEGMENTED NEUTROPHIL", "setting": "120 h, time 5 day", "result": 461.33, "unit": "CELLS/uL"}, {"measurement": "BASOPHIL", "setting": "120 h, time 5 day", "result": 0, "unit": "%"}, {"measurement": "EOSINOPHIL", "setting": "120 h, time 5 day", "result": 1.33, "unit": "%"}, {"measurement": "ERYTHROCYTE COUNT", "setting": "120 h, time 5 day", "result": 5.55, "unit": "x10E6/uL"}, {"measurement": "HEMATOCRIT", "setting": "120 h, time 5 day", "result": 36.1, "unit": "%"}, {"measurement": "HEMOGLOBIN", "setting": "120 h, time 5 day", "result": 13.53, "unit": "G/DL"}, {"measurement": "LEUKOCYTE COUNT", "setting": "120 h, time 5 day", "result": 8.4, "unit": "x10E3/uL"}, {"measurement": "LYMPHOCYTE", "setting": "120 h, time 5 day", "result": 93.33, "unit": "%"}, {"measurement": "MEAN CORPUSCULAR HEMOGLOBIN", "setting": "120 h, time 5 day", "result": 24.37, "unit": "pg"}, {"measurement": "MEAN CORPUSCULAR HEMOGLOBIN CONCENTRATION", "setting": "120 h, time 5 day", "result": 37.53, "unit": "G/DL"}, {"measurement": "MEAN CORPUSCULAR VOLUME", "setting": "120 h, time 5 day", "result": 65.03, "unit": "fL"}, {"measurement": "MONOCYTE", "setting": "120 h, time 5 day", "result": 0, "unit": "%"}, {"measurement": "NEUTROPHIL", "setting": "120 h, time 5 day", "result": 5.33, "unit": "%"}, {"measurement": "NUCLEATED RED BLOOD CELLS", "setting": "120 h, time 5 day", "result": "0 /100WBC"}, {"measurement": "PLATELET COUNT", "setting": "120 h, time 5 day", "result": 1160, "unit": "x10E3/uL"}, {"measurement": "ALANINE AMINOTRANSFERASE", "setting": "120 h, time 5 day", "result": 48.33, "unit": "u/L"}, {"measurement": "ALBUMIN", "setting": "120 h, time 5 day", "result": 4.4, "unit": "G/DL"}, {"measurement": "ALKALINE PHOSPHATASE", "setting": "120 h, time 5 day", "result": 429.67, "unit": "u/L"}, {"measurement": "ASPARTATE AMINOTRANSFERASE", "setting": "120 h, time 5 day", "result": 75.33, "unit": "u/L"}, {"measurement": "BLOOD UREA NITROGEN", "setting": "120 h, time 5 day", "result": 15, "unit": "mg/dL"}, {"measurement": "CARBON DIOXIDE", "setting": "120 h, time 5 day", "result": 27.33, "unit": "mmol/L"}, {"measurement": "CHLORIDE", "setting": "120 h, time 5 day", "result": 102.33, "unit": "MEQ/L"}, {"measurement": "CHOLESTEROL", "setting": "120 h, time 5 day", "result": 63.33, "unit": "mg/dL"}, {"measurement": "CREATINE PHOSPHOKINASE", "setting": "120 h, time 5 day", "result": 205, "unit": "u/L"}, {"measurement": "CREATININE", "setting": "120 h, time 5 day", "result": 0.16, "unit": "mg/dL"}, {"measurement": "GLUCOSE", "setting": "120 h, time 5 day", "result": 151.67, "unit": "mg/dL"}, {"measurement": "LACTATE DEHYDROGENASE", "setting": "120 h, time 5 day", "result": 111.33, "unit": "u/L"}, {"measurement": "LIPASE", "setting": "120 h, time 5 day", "result": 8.33, "unit": "u/L"}, {"measurement": "PHOSPHORUS", "setting": "120 h, time 5 day", "result": 12.33, "unit": "mg/dL"}, {"measurement": "POTASSIUM", "setting": "120 h, time 5 day", "result": 5.99, "unit": "MEQ/L"}, {"measurement": "SODIUM", "setting": "120 h, time 5 day", "result": 148.33, "unit": "MEQ/L"}, {"measurement": "TOTAL BILIRUBIN", "setting": "120 h, time 5 day", "result": 0.3, "unit": "mg/dL"}, {"measurement": "TOTAL PROTEIN", "setting": "120 h, time 5 day", "result": 6.2, "unit": "G/DL"}, {"measurement": "URIC ACID", "setting": "120 h, time 5 day", "result": 0.93, "unit": "mg/dL"}]}
